One assay concerns ATXN3 pre-mRNA. The assay is described as follows: RT-qPCR Assay to Quantify Exon 4 Skipping in ATXN3 pre-mRNA in Cells. Type of assay: cell-based. The conditions noted are these: cells incubated with compound 24 h, 7-point concentration curve, GAPDH control. The method, then: RT-qPCR Assay to Quantify Exon 4 Skipping in ATXN3 pre-mRNA in Cells Test compounds were serially diluted 3.16-fold in 100% DMSO to generate a 7-point concentration curve. Aliquots of 0.5 μL of diluted compounds were transferred to a 96-well flat bottom plate by a liquid handler. An aliquot of 0.5 μL DMSO was also transferred to separate wells and used as controls. Duplicate samples were set up for each compound concentration and for the DMSO control.
Cells were thawed and incubated in cell culture media (DMEM, 10% FBS, and 1% antibiotic cocktail) for 72 h. Cells were trypsinized, counted, and re-suspended to a concentration of 100,000 cells/mL in cell culture media. A 100 μL aliquot of the cell suspensions were plated at 10,000 cells per well in the compound containing 96 well microtiter plate and incubated for in a cell culture incubator (37° C., 5% CO2, 100% relative humidity).
After 24 h, media was aspirated from the cells and 50 μL of the RCL2 lysis buffer (10 mM Tris-HCL pH 7.4, 150 mM NaCl, 0.33% IGEPAL® CA-630) was added to each well and incubated at room temperature for 1 min. Chilled nuclease free water (50 μL per well) was added and the plates were immediately transferred on ice. After 1 min on ice, plates were frozen at −80° C. overnight.
Preparation of RT-qPCR Reaction Mixture:
An aliquot of 2 μL/well of the cell lysates was transferred using the liquid handler to the Armadillo 384-Well PCR plate containing 8 μL/well of the RT-qPCR reaction mixture that was prepared as detailed above. The plates were then sealed with MicroAmp™ Optical Adhesive Film followed by spinning down for 1 min and placed in the CFX384 thermocycler (BioRad).
The RT-qPCR was carried out at the following temperatures for the indicated time: • Step 1: 48° C. (30 min) • Step 2: 95° C. (10 min) • Step 3: 95° C. (15 sec) • Step 4: 60° C. (1 min); then, repeated Steps 3 and 4 for a total of 40 cycles.
The percent exon 4 skipping was calculated for each dose of compound treatment using Equations 1 and 2.
Data were fit to a dose response curve and the IC50 was interpolated using XLfit® statistical and curve fitting package.
An IC50 value between >2.0 μM and ≤3.0 μM is indicated by one star (*). […] IC50 value between >0.5 μM and ≤1.0 μM is indicated by four stars (****). An IC50 value ≤0.5 μM is indicated by five stars (*****).

Assay [1] deals with Total ATXN3 (tATXN3) protein. Kind of assay: Endogenous Total ATXN3 (tATXN3) Protein Assay (MSD immunoassay of cell lysates). Type of assay: cell-based. Conditions: cells incubated with compound 48 h; 7-point concentration curve; MSD detection in cell lysate. The method, then:
Endogenous Total ATXN3 (tATXN3) Protein Assay
Meso Scale Discovery (MSD) 96-well or 384-well plates were coated overnight at 4° C. with Ataxin 3 mouse monoclonal antibody (Invitrogen, MA3-082) at a concentration of 0.5 μg/mL in PBS (30 μL per well). Plates were then washed three times with 300 μL wash buffer (0.05% TWEEN®-20, polyethylene glycol sorbitan monolaurate, in PBS) and blocked (Meso Scale Diagnostics, R93BA-1; 5% BSA in PBS) for 2 h at room temperature with rotational shaking and then washed three times with wash buffer.
Test compounds were serially diluted 3.16-fold in 100% DMSO to generate a 7-point concentration curve. Aliquots of 0.5 μL of diluted compounds were transferred to a 96-well flat bottom plate by a liquid handler. An aliquot of 0.5 μL DMSO was also transferred to separate wells and used as controls. Duplicate samples were set up for each compound concentration and for the DMSO control.
Cells were thawed and incubated in cell culture media (DMEM, 10% FBS, and 1% antibiotic cocktail) for 72 h. Cells were trypsinized, counted, and re-suspended to a concentration of 100,000 cells/mL in cell culture media. A 100 μL aliquot of the cell suspensions were plated at 10,000 cells per well in the compound containing 96 well microtiter plate and incubated for in a cell culture incubator (37° C., 5% CO2, 100% relative humidity). After 48 h, the medium was removed and 50-100 μL of lysis buffer (Meso Scale Diagnostics, R60TX-2) containing 1× halt protease inhibitor cocktail of (Thermo Scientific, Halt™ Protease Inhibitor Cocktail, 78430) per well was added to cells to provide a “cell lysate”. The plate was placed on a shaker at 4° C. for 30 minutes, then stored at −80° C.
Cell lysate samples (25 μL) were transferred to the antibody-coated MSD plate and incubated overnight at 4° C. After removal of the lysates, the plate was washed three times with wash buffer, and 25 μL of Ataxin 3 recombinant rabbit monoclonal antibody (Invitrogen, #702788) secondary antibody (diluted to 0.25 μg/mL in 0.05% TWEEN®-20 in blocking buffer) was added to each well and incubated with shaking for 1-2 h at room temperature. Following incubation with the secondary antibody, the wells were rinsed with wash buffer and then […] Anti Rabbit Antibody Goat SULFO-TAG Labeled (Meso Scale Diagnostics, R32AB-1) detecting antibody (diluted to 0.25 μg/mL in 0.05% TWEEN®-20 in blocking buffer) was added to each well and incubated with shaking for 1 h at room temperature. After rinsing three times with wash buffer, 150 μL of Read Buffer T with surfactant (tris-based buffer containing tripropylamine, Meso Scale Diagnostics, R92TC-1) were added to each empty well, and the plate was imaged on a SI 6000 imager (MSD) according to manufacturers' instructions provided for 96- or 384-well plates.

pIC50: −log10 of the molar value.

This is an account of results in patent US20240051968A1, “METHODS FOR TREATING SPINOCEREBELLAR ATAXIA TYPE 3” (PTC Therapeutics, Inc., priority 2021, published 2024).

What is called pIC50 is the IC50 on a negative log10 scale, so that one unit is a factor of ten.

In the case of `Clc1cc(NCc2ccco2)c2scc(Cl)c2n1` [Cpd 6, 3,5-dichloro-N-[(furan-2-yl)methyl]thieno[3,2-b]pyridin-7-amine], in the assay with ATXN3 pre-mRNA, the “IC50, exon 4 skipping in ATXN3 pre-mRNA” value was “inactive”. The “IC50 (average), total ATXN3 protein” value in assay [1] was “inactive”.

As to `Clc1cc(NCc2ccco2)c2scc(Br)c2n1` [Cpd 7, 3-bromo-5-chloro-N-[(furan-2-yl)methyl]thieno[3,2-b]pyridin-7-amine], in the assay on ATXN3 pre-mRNA, the pIC50 is 5.82 to 6.00. Further, the “IC50 (average), total ATXN3 protein” value in assay [1] is “inactive”.

On to `C[C@H](N)Cc1cc2nc(Cl)cc(NCc3ccco3)c2s1` [Cpd 16, 2-[(2S)-2-aminopropyl]-5-chloro-N-[(furan-2-yl)methyl]thieno[3,2-b]pyridin-7-amine], for which the pIC50 (in the assay with ATXN3 pre-mRNA; in assay [1]) was ≥ 6.30 each time.

`N[C@@H](CO)Cc1cc2nc(Cl)cc(NCc3ccco3)c2s1` [Cpd 17, (2R)-2-amino-3-(5-chloro-7-{[(furan-2-yl)methyl]amino}thieno[3,2-b]pyridin-2-yl)propan-1-ol]: the pIC50 (in the assay with ATXN3 pre-mRNA; in assay [1]) was ≥ 6.30 each time.

Consider `Cc1c(C[C@H](C)N)sc2c(NCc3ccco3)cc(Cl)nc12` [Cpd 18, 2-[(2S)-2-aminopropyl]-5-chloro-N-[(furan-2-yl)methyl]-3-methylthieno[3,2-b]pyridin-7-amine], for which the pIC50 (in the assay on ATXN3 pre-mRNA; in assay [1]) was ≥ 6.30 in each case.

`Cc1c(C[C@H](C)N)sc2c(NCc3ccccc3F)cc(Cl)nc12` [Cpd 29, 2-[(2S)-2-aminopropyl]-5-chloro-N-[(2-fluorophenyl)methyl]-3-methylthieno[3,2-b]pyridin-7-amine]: the pIC50 (in the assay with ATXN3 pre-mRNA; in assay [1]) was ≥ 6.30 throughout.

`Cc1c(C[C@H](C)N)sc2c(NCc3ccco3)ccnc12` [Cpd 34, 2-[(2S)-2-aminopropyl]-N-[(furan-2-yl)methyl]-3-methylthieno[3,2-b]pyridin-7-amine]: the pIC50 (in the assay on ATXN3 pre-mRNA; in assay [1]) was ≥ 6.30 throughout.

Consider `Cc1c(C[C@H](C)N)sc2c(NCc3ccncc3F)cc(Cl)nc12` [Cpd 35, 2-[(2S)-2-aminopropyl]-5-chloro-N-[(3-fluoropyridin-4-yl)methyl]-3-methylthieno[3,2-b]pyridin-7-amine], for which the pIC50 (with ATXN3 pre-mRNA; in assay [1]) was ≥ 6.30 throughout.

With `C[C@H](N)Cc1sc2c(NCc3ccco3)cc(Cl)nc2c1Cl` [Cpd 36, 2-[(2S)-2-aminopropyl]-3,5-dichloro-N-[(furan-2-yl)methyl]thieno[3,2-b]pyridin-7-amine], the pIC50 (in the assay with ATXN3 pre-mRNA; in assay [1]) was ≥ 6.30 each time.

In the case of `N[C@@H](CO)Cc1sc2c(NCc3ccco3)cc(Cl)nc2c1Cl` [Cpd 39, (2R)-2-amino-3-(3,5-dichloro-7-{[(furan-2-yl)methyl]amino}thieno[3,2-b]pyridin-2-yl)propan-1-ol], the pIC50 (in the assay on ATXN3 pre-mRNA; in assay [1]) was ≥ 6.30 each time.

Consider `COC[C@H](N)Cc1sc2c(NCc3ccco3)cc(Cl)nc2c1Cl` [Cpd 40, 2-[(2R)-2-amino-3-methoxypropyl]-3,5-dichloro-N-[(furan-2-yl)methyl]thieno[3,2-b]pyridin-7-amine], for which the pIC50 (with ATXN3 pre-mRNA; in assay [1]) was ≥ 6.30 each time.

Consider `N[C@@H](CO)Cc1sc2c(NCc3ccco3)cc(Cl)nc2c1Br` [Cpd 41, (2R)-2-amino-3-(3-bromo-5-chloro-7-{[(furan-2-yl)methyl]amino}thieno[3,2-b]pyridin-2-yl)propan-1-ol], for which the pIC50 (in the assay on ATXN3 pre-mRNA; in assay [1]) was ≥ 6.30 in each case.

Regarding `CN[C@@H](C)Cc1sc2c(NCc3ccco3)cc(Cl)nc2c1C` [Cpd 42, 5-chloro-N-[(furan-2-yl)methyl]-3-methyl-2-[(2S)-2-(methylamino)propyl]thieno[3,2-b]pyridin-7-amine], the pIC50 is 6.00 to 6.30 in the assay with ATXN3 pre-mRNA and ≥ 6.30 in assay [1].

Turning to `COC[C@H](N)Cc1sc2c(NCc3ccco3)cc(Cl)nc2c1Br` [Cpd 44, 2-[(2R)-2-amino-3-methoxypropyl]-3-bromo-5-chloro-N-[(furan-2-yl)methyl]thieno[3,2-b]pyridin-7-amine], the pIC50 (in the assay with ATXN3 pre-mRNA; in assay [1]) was ≥ 6.30 throughout.

Turning to `COC[C@H](N)Cc1sc2c(NCc3ccco3)cc(Cl)nc2c1C` [Cpd 45, 2-[(2R)-2-amino-3-methoxypropyl]-5-chloro-N-[(furan-2-yl)methyl]-3-methylthieno[3,2-b]pyridin-7-amine], the pIC50 (in the assay on ATXN3 pre-mRNA; in assay [1]) was ≥ 6.30 in each case.

Turning to `C[C@H](N)Cc1sc2c(NCc3ccco3)cc(Cl)nc2c1C1CC1` [Cpd 51, 2-[(2S)-2-aminopropyl]-5-chloro-3-cyclopropyl-N-[(furan-2-yl)methyl]thieno[3,2-b]pyridin-7-amine], the pIC50 (in the assay on ATXN3 pre-mRNA; in assay [1]) was ≥ 6.30 each time.

Take `C[C@H](N)Cc1sc2c(NCc3cccs3)cc(Cl)nc2c1Cl` [Cpd 52, 2-[(2S)-2-aminopropyl]-3,5-dichloro-N-[(thiophen-2-yl)methyl]thieno[3,2-b]pyridin-7-amine]: the pIC50 (in the assay with ATXN3 pre-mRNA; in assay [1]) was ≥ 6.30 each time.

`C[C@H](N)Cc1sc2c(NCc3cccs3)cc(Cl)nc2c1Br` [Cpd 53, 2-[(2S)-2-aminopropyl]-3-bromo-5-chloro-N-[(thiophen-2-yl)methyl]thieno[3,2-b]pyridin-7-amine]: the pIC50 (with ATXN3 pre-mRNA; in assay [1]) was ≥ 6.30 throughout.

On to `Cc1c(C[C@H](C)N)sc2c(NCc3cccs3)cc(C#N)nc12` [Cpd 54, 2-[(2S)-2-aminopropyl]-3-methyl-7-{[(thiophen-2-yl)methyl]amino}thieno[3,2-b]pyridine-5-carbonitrile], for which the pIC50 (in the assay on ATXN3 pre-mRNA; in assay [1]) was ≥ 6.30 each time.

In the case of `Cc1c(C[C@H](C)N)sc2c(NCc3nccs3)cc(Cl)nc12` [Cpd 57, 2-[(2S)-2-aminopropyl]-5-chloro-3-methyl-N-[(1,3-thiazol-2-yl)methyl]thieno[3,2-b]pyridin-7-amine], the pIC50 (in the assay on ATXN3 pre-mRNA; in assay [1]) was ≥ 6.30 each time.

For the compound `Cc1c(C[C@@H](N)CO)sc2c(NCc3ccco3)cc(Cl)nc12` [Cpd 58, (2R)-2-amino-3-(5-chloro-7-{[(furan-2-yl)methyl]amino}-3-methylthieno[3,2-b]pyridin-2-yl)propan-1-ol], the pIC50 (with ATXN3 pre-mRNA; in assay [1]) was ≥ 6.30 each time.

As to `Cc1c(C[C@H](N)CF)sc2c(NCc3ccco3)cc(Cl)nc12` [Cpd 59, 2-[(2S)-2-amino-3-fluoropropyl]-5-chloro-N-[(furan-2-yl)methyl]-3-methylthieno[3,2-b]pyridin-7-amine], the “IC50, exon 4 skipping in ATXN3 pre-mRNA” value in the assay on ATXN3 pre-mRNA was “inactive”. Moreover, the “IC50 (average), total ATXN3 protein” value in assay [1] is “inactive”.
